Results as given in patent US9320722B2, “Regulators of aldehyde dehydrogenase ALDH3A1 and related therapeutic methods” (Indiana University Research and Technology Corporation, priority 2013, dated 2016).

Columns and labels:
ALDH3A1 [1] = molecular target: T1, ALDH3A1 (Homo sapiens (Human), UniProt P30838); settings: read-out: ALDH3A1 IC50 (micromolar); Table 4(B), hits from ChemBridge screen
Description: (§1) The enzymatic activity of ALDH1A1, ALDH2 and ALDH3A1 were measured as described previously^[30,34,37,39].
(§2) All reactions were initiated by the addition of the aldehyde substrate. The inhibition curves were fit to the Logistic four parameter IC50 equation using the SigmaPlot (v11, StatSys). We characterized the mode of inhibition using steady-state kinetics through co-variation of inhibitor and substrate concentrations. The steady state kinetic measurements were performed in 100 mM Na2HPO4 buffer, pH 7.5. […] In all cases—including the control reactions lacking inhibitors, the final reaction mixture contained 2% (v/v) DMSO. The reaction was initiated by addition of substrate and the initial rate of product formation was determined on a Beckman DU-640. All data were fit to the non-linear velocity expressions for competitive, non-competitive, mixed-type non-competitive and uncompetitive inhibition^[40]. Appropriateness of the inhibition model was determined through analysis of goodness-of-fit and the residuals of those fits. Lineweaver-Burke plots were created using SigmaPlot (v11, StatSys) to visualize the inhibition patterns. All data represent the average of three independent experiments utilizing triplicate assays at each concentration point.
(§3) ALDH1A1, ALDH2 and ALDH3A1 activities were measured as described earlier^33,44,45. […] Reaction was initiated by the addition of the aldehyde substrate. […] The inhibition curves were fit to the Logistic four parameter IC50 equation using the SigmaPlot (v11, StatSys). Steady state kinetic experiments were performed by co-varying inhibitor and substrate concentrations. The steady state kinetic measurements were performed in 100 mM Na2HPO4 buffer, pH 7.5.

ALDH3A1 [2] = molecular target: T1, ALDH3A1; experiment: biochemical; settings: read-out: % activity left after treating with 10 micromolar inhibitor ALDH3A1
Description: as §1, §2, §3

Solubility = assay type: physicochemical
ALDH2 = ALDH2 (Homo sapiens (Human), UniProt P05091); experiment: ALDH2 dehydrogenase activity / IC50 determination (propionaldehyde substrate); assay type: biochemical; settings: up to 250 μM
Description: The enzymatic activity of ALDH1A1, ALDH2 and ALDH3A1 were measured as described previously^[30,34,37,39]. The specific activities of the purified proteins were 1.9, 3.8 and 32 μmole/min/mg for ALDH1A1, ALDH2 and ALDH3A1 respectively.
as §2, §3

ALDH1A1 = ALDH1A1 (Homo sapiens (Human), UniProt P00352); experiment: ALDH1A1 dehydrogenase activity / IC50 determination (propionaldehyde substrate); assay type: biochemical; settings: up to 250 μM
Description: as §1, §2, §3

[3] = molecular target: ALDH3A1 activity in A549 cell lysates (Homo sapiens (Human), UniProt P30838); assay type: biochemical; settings: 50 μM CB29
Description: (§4) A549, SF767 and CCD13Lu cell lysates were collected exactly the same way as described before and 50 μg of cell lysate was used in the activity assay. […] All assays contained 1% (v/v) DMSO.
(§5) Cell lysates were obtained from A549, SF767 and CCD13Lu cell lines. In summary, cells (A549, SF767 and CCD13Lu) were washed with ice cold PBS to remove residual media. 400 μL of RIPA buffer (Cell signaling technologies) containing 1 mM PMSF (Sigma Aldrich) was added to each 10 cm dish. Plates were incubated on ice for 5 minutes, scraped and lysates were collected. Lysates were centrifuged for 10 minutes at 16,000×G in a micro-centrifuge at 4° C. Protein concentrations were measured using the Bradford reagent (Biorad Laboratories). 50 μg of cell lysate was used in the activity assay. […] All assays, including the controls, contained 1% (v/v) DMSO.

[4] = molecular target: ALDH3A1 activity in SF767 cell lysates (Homo sapiens (Human), UniProt P30838); assay type: biochemical; settings: 50 μM CB29
Description: as §4, §5

ALDH3A1 [5] = molecular target: T1, ALDH3A1; assay type: biochemical; settings: 50 μM CB29
Description: as §4, §5

SF767 cells = experiment: MTT assay for cell proliferation / mafosfamide sensitivity, SF767; assay type: cell-based; settings: 50 μM inhibitor; 146±2 μM without inhibitor

T1 sequence (P30838 whole entry): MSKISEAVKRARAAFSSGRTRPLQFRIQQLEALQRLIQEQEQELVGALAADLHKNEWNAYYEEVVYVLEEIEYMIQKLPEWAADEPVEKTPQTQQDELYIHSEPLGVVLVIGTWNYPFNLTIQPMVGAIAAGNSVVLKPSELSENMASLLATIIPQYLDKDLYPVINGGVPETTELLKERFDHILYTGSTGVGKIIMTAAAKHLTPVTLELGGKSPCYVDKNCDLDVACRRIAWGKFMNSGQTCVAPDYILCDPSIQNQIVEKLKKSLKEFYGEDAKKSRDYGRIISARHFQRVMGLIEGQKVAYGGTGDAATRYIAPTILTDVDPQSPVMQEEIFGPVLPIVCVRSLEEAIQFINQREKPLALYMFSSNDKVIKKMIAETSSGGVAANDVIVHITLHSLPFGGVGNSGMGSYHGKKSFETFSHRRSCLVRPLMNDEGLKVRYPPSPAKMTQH
ALDH2, sequence (P05091 18-517): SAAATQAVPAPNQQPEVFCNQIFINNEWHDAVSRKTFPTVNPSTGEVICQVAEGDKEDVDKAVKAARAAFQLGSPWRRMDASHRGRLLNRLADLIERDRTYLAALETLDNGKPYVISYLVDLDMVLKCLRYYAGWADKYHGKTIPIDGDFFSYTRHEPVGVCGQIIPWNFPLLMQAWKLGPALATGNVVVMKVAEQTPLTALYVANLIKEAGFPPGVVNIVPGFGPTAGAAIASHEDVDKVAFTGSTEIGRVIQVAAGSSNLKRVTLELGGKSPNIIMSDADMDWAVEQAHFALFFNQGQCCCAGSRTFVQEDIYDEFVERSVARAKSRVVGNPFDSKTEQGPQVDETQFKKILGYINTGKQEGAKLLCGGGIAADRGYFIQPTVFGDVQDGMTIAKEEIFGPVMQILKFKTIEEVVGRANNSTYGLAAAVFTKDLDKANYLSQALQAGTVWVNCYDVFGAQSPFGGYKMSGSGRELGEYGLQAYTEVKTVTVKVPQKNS
ALDH3A1 activity in A549 cell lysates, sequence (P30838 whole entry): as the sequence (P30838 whole entry) above
ALDH3A1 activity in SF767 cell lysates, sequence (P30838 whole entry): as above
ALDH1A1, sequence (P00352 whole entry): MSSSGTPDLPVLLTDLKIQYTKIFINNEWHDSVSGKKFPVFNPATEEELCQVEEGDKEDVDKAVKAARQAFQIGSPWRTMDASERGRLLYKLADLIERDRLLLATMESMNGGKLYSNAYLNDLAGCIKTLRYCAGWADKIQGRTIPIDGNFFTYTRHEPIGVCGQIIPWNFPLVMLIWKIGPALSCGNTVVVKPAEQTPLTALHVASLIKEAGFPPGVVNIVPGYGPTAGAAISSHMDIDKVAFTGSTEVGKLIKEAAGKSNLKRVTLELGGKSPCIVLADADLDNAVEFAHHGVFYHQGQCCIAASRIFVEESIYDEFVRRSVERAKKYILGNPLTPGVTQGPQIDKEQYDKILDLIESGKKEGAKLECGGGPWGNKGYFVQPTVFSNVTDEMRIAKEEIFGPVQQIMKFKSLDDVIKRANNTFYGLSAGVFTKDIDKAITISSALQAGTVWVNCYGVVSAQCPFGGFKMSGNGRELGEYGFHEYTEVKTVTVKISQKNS

N#CSCCCCOc1ccc(Cl)cc1 [CB1]
IC50 (ALDH3A1 [1]): 3.7 µM

O=[N+](O)c1ccccc1CNc1ccc(F)c(F)c1 [CB2]
IC50 (ALDH3A1 [1]): 5.2 µM

Cc1cc(OCC(=O)O)c([N+](=O)O)cc1Cl [CB3]
inhibition at 10 µM (ALDH3A1 [2]): 55%

Cc1cc(C2CNc3ccccc32)oc(=O)c1 (centres unmarked) [CB4]
inhibition at 10 µM (ALDH3A1 [2]): 60%

Nc1ccc(-c2cc(C(=O)O)c3ccccc3n2)cc1 [CB5]
inhibition at 10 µM (ALDH3A1 [2]): 34%

N#CSC1CN=C(NC2CCCCC2)S1 (centres unmarked) [CB6]
inhibition at 10 µM (ALDH3A1 [2]): 6%

Cc1nc2ccccc2n1S(=O)(=O)c1ccc(F)cc1 [CB7, 1-[(4-fluorophenyl)sulfonyl]-2-methyl-1H-benzimidazole]
solubility (in words) (Solubility): very good solubility

N#CC(Cc1ccc(S(=O)(=O)c2ccc(Cl)cc2)cc1)c1nc2ccccc2[nH]1 (centres unmarked) [CB10]
inhibition at 10 µM (ALDH3A1 [2]): 58%

OCCCn1c(-c2ccc(Cl)cc2)cn2c3ccccc3nc12 [CB11]
inhibition at 10 µM (ALDH3A1 [2]): 61%

CCN(CC)CCC(=O)c1ccc2c(c1)OCO2 [CB12]
IC50 (ALDH3A1 [1]): 3.2 µM

O=C(CCN1CCOCC1)c1ccc2c(c1)OCCO2 [CB13]
IC50 (ALDH3A1 [1]): 11.7 µM

O=[N+]([O-])c1ccc(N2CCCC2)c(F)c1 [CB14]
inhibition at 10 µM (ALDH3A1 [2]): 47%

CCNC(=O)CC1Nc2cc(C)c(C)cc2NC1=O (centres unmarked) [CB16]
inhibition at 10 µM (ALDH3A1 [2]): 50%

CN(CC(=O)[O-])c1nc2ccc([N+](=O)O)cc2s1 [CB21]
inhibition at 10 µM (ALDH3A1 [2]): 58%

O=C(CSc1ccccc1)NCc1ccco1 [CB23]
inhibition at 10 µM (ALDH3A1 [2]): 65%

CCOc1cc(/C=C/[N+](=O)O)ccc1O [CB26]
inhibition at 10 µM (ALDH3A1 [2]): 45%

c1ccc(CNc2nc(-c3ccccn3)cs2)cc1 [CB27]
inhibition at 10 µM (ALDH3A1 [2]): 43%

CC(=O)Nc1ccc(Nc2ccc(S(C)(=O)=O)cc2[N+](=O)[O-])cc1 [CB29, N-[4-{(4-(methylsulfonyl)-2-nitrophenyl)-4-amino}-phenyl]-acetamide]
inhibition toward ALDH2 (ALDH2): < 5% | inhibition toward ALDH1A1 (ALDH1A1): < 5% | decrease of ALDH3A1 activity in A549 cell lysate [3]: > 95% | decrease of ALDH3A1 activity in SF767 cell lysate [4]: > 90% | decrease of activity of recombinant ALDH3A1 (ALDH3A1 [5]): ~97% | ED50 value of mafosfamide in the presence of inhibitor, SF767 (SF767 cells): 92 ± 4 µM | concentration of homogenous solution easily formed (Solubility; in the presence of […] DMSO): ≥ 100 µM

O=C(O)CCc1ccc(-c2ccc(F)cc2)o1 [CB32]
inhibition at 10 µM (ALDH3A1 [2]): 36%

C=CCOc1ccc(/C=C/[N+](=O)O)cc1OC [CB35]
inhibition at 10 µM (ALDH3A1 [2]): 46%

C#CCOc1ccc(/C=C/[N+](=O)O)cc1 [CB36]
inhibition at 10 µM (ALDH3A1 [2]): 30%

Cc1ccc(/C=C/[N+](=O)O)cc1Br [CB37]
inhibition at 10 µM (ALDH3A1 [2]): 30%

COc1ccc(/C=C/[N+](=O)O)cc1Br [CB38]
inhibition at 10 µM (ALDH3A1 [2]): 40%
